Molecular target: T1, human GLP-1 receptor (Homo sapiens, UniProt P43220)
T1 construct: expressed in transfected cells; host or cells: HEK-293
Test: cAMP response (HTRF) of HEK-293 cells stably expressing human GLP-1 receptor
Format: cell-based
Conditions: Table 8; read-out: EC50 hGLP-1R
Protocol: cAMP content of cells was determined using a kit from Cisbio Corp. (cat. no. 62AM4PEJ) based on HTRF (Homogenous Time Resolved Fluorescence). For preparation, cells were split into T175 culture flasks and grown overnight to near confluency in medium (DMEM/10% FBS). Medium was then removed and cells washed with PBS lacking calcium and magnesium, followed by proteinase treatment with accutase (Sigma-Aldrich cat. no. A6964). Detached cells were washed and resuspended in assay buffer (1×HBSS; 20 mM HEPES, 0.1% BSA, 2 mM IBMX) and cellular density determined. They were then diluted to 400000 cells/ml and 25 μl-aliquots dispensed into the wells of 96-well plates. For measurement, 25 μl of test compound in assay buffer was added to the wells, followed by incubation for 30 minutes at room temperature.
Potencies of peptidic compounds at the GLP-1, glucagon and GIP receptors were determined by exposing cells expressing human glucagon receptor (hGlucagon R), human GIP receptor (hGIP-R) or human GLP-1 receptor (hGLP-1 R) to the listed compounds at increasing concentrations and measuring the formed cAMP as described in Methods.

T1 sequence (P43220 24-463): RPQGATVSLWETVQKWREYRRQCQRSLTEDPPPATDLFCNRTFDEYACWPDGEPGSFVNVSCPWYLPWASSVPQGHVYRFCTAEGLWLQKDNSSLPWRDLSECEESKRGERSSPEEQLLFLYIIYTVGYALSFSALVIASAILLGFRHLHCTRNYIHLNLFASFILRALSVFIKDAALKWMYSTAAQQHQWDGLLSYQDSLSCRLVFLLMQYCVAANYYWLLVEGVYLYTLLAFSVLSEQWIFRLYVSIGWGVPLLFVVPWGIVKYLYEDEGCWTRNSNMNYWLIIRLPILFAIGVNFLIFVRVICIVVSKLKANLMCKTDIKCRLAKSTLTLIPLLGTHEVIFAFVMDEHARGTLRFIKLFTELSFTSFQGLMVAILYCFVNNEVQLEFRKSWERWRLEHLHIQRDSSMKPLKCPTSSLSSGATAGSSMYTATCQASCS

EC50: 1.4 pM
SMILES: CCCCCCCCCCCCCCCC(=O)N[C@@H](CCC(=O)N[C@@H](CCC(=O)NCCCC[C@H](NC(=O)[C@H](CC(C)C)NC(=O)[C@H](CCCCN)NC(=O)[C@H](CO)NC(=O)[C@H](CC(C)C)NC(=O)[C@H](CC(=O)O)NC(=O)[C@H](CO)NC(=O)[C@@H](NC(=O)[C@H](Cc1ccccc1)NC(=O)[C@@H](NC(=O)CNC(=O)[C@H](Cc1c[nH]cn1)NC(=O)C(C)(C)NC(=O)[C@@H](N)Cc1c[nH]cn1)[C@@H](C)O)[C@@H](C)O)C(=O)N[C@@H](CCC(=O)O)C(=O)N[C@@H](CCC(=O)O)C(=O)N[C@@H](CCC(N)=O)C(=O)N[C@@H](CCCNC(=N)N)C(=O)N[C@@H](CCC(N)=O)C(=O)N[C@@H](CCCCN)C(=O)N[C@@H](CCC(=O)O)C(=O)N[C@@H](Cc1ccccc1)C(=O)N[C@H](C(=O)N[C@@H](CCC(=O)O)C(=O)N[C@@H](Cc1c[nH]c2ccccc12)C(=O)N[C@@H](CC(C)C)C(=O)N[C@@H](CCCCN)C(=O)N[C@@H](C)C(=O)NCC(=O)NCC(=O)N[C@@H](Cc1c[nH]cn1)C(=O)N1CCC[C@H]1C(=O)N[C@@H](CO)C(=O)NC(C)(C)C(=O)N[C@@H](CCCCN)C(=O)N1CCC[C@H]1C(=O)N1CCC[C@H]1C(=O)N1CCC[C@H]1C(=O)N[C@@H](CCCCN)C(N)=O)[C@@H](C)CC)C(=O)O)C(=O)O [SEQ ID NO: 6, H-Aib-H-G-T-F-T-S-D-L-S-K-L-K[gGlu-gGlu-Palm]-E-E-Q-R-Q-K-E-F-I-E-W-L-K-A-G-G-H-P-S-Aib-K-P-P-P-K-NH2]

— patent US10538567B2, “Compounds as peptidic trigonal GLP1/glucagon/GIP receptor agonists” (priority 2016, dated 2020)
